{"source": "patent US4007210A", "about": "“Novel 3-triphenylmethoxy-1-alkynes, 3-triphenylmethoxy-1-trans-alkenyl-dialkyl-alanes, and lithium 3-triphenyl-methoxy-1-trans-alkenyl-dialkyl-alanates” (American Cyanamid Company, priority 1975, dated 1977)", "key": {"diastolic blood pressure": {"system": "diastolic blood pressure", "assay": "hypotensive activity in anesthetized rats", "type": "in vivo, Male Wistar strain rats", "conditions": "intravenous, minimal dose for a decrease of about 10 mm. in diastolic blood pressure; for minimal effective dose: Rattus norvegicus", "experimental": "This procedure is a modification of the technique described by Pike et al., Prostaglandins, Nobel Symposium 2, Stockholm, June, 1966; p. 165.\nMale Wistar strain rats (Royal Hart Farms) averaging approximately 250 grams in weight were fastened to rat boards in a supine position by means of canvas vests and limb ties. The femoral area was infiltrated subcutaneously with lidocaine and the iliac artery and vein were exposed and cannulated. Arterial blood pressure (systolic/diastolic) was recorded using a Statham P23 Db pressure, the animals were anethetized before use with pentobarbital, 30 mg./kg. of body weight intravenously, and also were given hexamethoxium bitartrate, 2 mg/kg. of body weight intravenously. The test compounds were prepared by ultrasonic dispersion in a saline-Tween 80 vehicle. A constant intravenous dose volume of 0.5 ml. was administered and test doses ranged from 0.1 to 10.0 mg./kg. of body weight. Increasing or decreasing doses were selected depending on the dose response obtained. In Table 2B below are set forth the minimal doses required to produce a decrease of about 10 mm. in diastolic blood pressure for typical compounds of the present invention."}, "[1]": {"system": "indomethacin ulcers of the stomach", "assay": "protection against the ulcerogenic properties of indomethacin (ulcer score)", "type": "in vivo, rats", "conditions": "2.5 or lower = active", "experimental": "The compounds of this invention provide protection against the ulcerogenic properties of indomethacin. This assay was carried out in the following manner.\nRats were starved for 48 hours (water was given ad libitum). Indomethacin (20 mg./kg. of body weight) was administered by the subutaneous route and one-half the dose of the test compound was administered by gavage at the same time. After three hours, the second half of the test compound was administered also by Gavage. Five hours after the administration of indomethacin the animals were decapitated and the stomachs removed. The stomachs were washed with distilled water, blotted on gauze, cut along the larger curvature, and the contents rinsed with distilled water. The stomachs were spread out, pinned on a cork and visualized under magnifying glass for ulcers. The criteria for scoring of ulcers was as previously reported. [Abdel-Galil et al. Brit. J. Pharmac. Chemotherapy 33:1-14 (1968)].\n1 Petechial hemorrhage or pin point ulcer\n3 Many ulcers, a few large\n4 Many ulcers, mainly large\nControl animals treated with indomethacin but not test compound consistently give scores of about 3.0-3.5. Control animals treated with neither indomethacin nor test compound give scores of about 0.5-0.8. Compounds producing a score of 2.5 or lower are considered to be active."}, "[2]": {"system": "bronchospasms elicited by 5-hydroxytryptamine", "assay": "bronchodilator activity, Konzett procedure, 5-hydroxytryptamine", "type": "in vivo, guinea pigs", "conditions": "Cavia porcellus; three logarithmic cumulative intravenous doses; spasmogen 5-hydroxytryptamine; read-out: Bronchodilator Activity (Konzett Assays) ED50, 5-hydroxytryptamine", "experimental": "(§1) Bronchodilator activity was determined in guinea pigs against bronchospasms elicited by intravenous injections of 5-hydroxytryptamine, histamine or acetylcholine by the Konzett procedure. [See J. Lulling, P. Lievens, F. El Sayed and J. Prignot, Arzeimittel-Forschung, 18 995 (1968).]\n(§2) In the table which follows bronchodilator activity for representative compounds of this invention against one or more of the three spasmogenic agents is expressed as an ED50 determined from the results obtained with three logarithemic cumulative intravenous doses."}, "[3]": {"system": "bronchospasms elicited by acetylcholine", "assay": "bronchodilator activity, Konzett procedure, acetylcholine", "type": "in vivo, guinea pigs", "conditions": "Cavia porcellus; three logarithmic cumulative intravenous doses; column head printed choline; read-out: Bronchodilator Activity (Konzett Assays) ED50, choline", "experimental": "as §1, §2"}, "[4]": {"system": "bronchospasms elicited by histamine", "assay": "bronchodilator activity, Konzett procedure, histamine", "type": "in vivo, guinea pigs", "conditions": "Cavia porcellus; three logarithmic cumulative intravenous doses; spasmogen histamine; read-out: Bronchodilator Activity (Konzett Assays) ED50, histamine", "experimental": "as §1, §2"}, "gastric acid secretion": {"system": "gastric acid secretion", "assay": "gastric acid secretion inhibition, \"Shay rat\" procedure", "type": "in vivo, rats (male, CFE strain)", "conditions": "intraduodenal dose 100 mg./kg. of body weight; 3 hours; 20% or more = active", "experimental": "The novel compounds of the present invention are also effective inhibitors of gastric acid secretion and of ulcer development in experimental animals, and thus are potentially valuable as agents for the control of gastric acid secretion and of gastric erosion and as anti-ulcer agents. Gastric acid secretion inhibitory action is usually measured by the \"Shay rat\" procedure ^(1,2) with some modifications as follows.\nThe rats (male, CFE strain) were starved for 48 hours (water was given ad libitum) to permit evacuation of stomach contents. On the morning of the experiment, under ether anesthesia, the abdominal region was shaved and a midline incision (1-1 1/2 in.) was made with a scapel. With the help of a closed curved hemostate the duodenum was picked up. […]\nThe test compound or the vehicle, usually […], were injected into the duodenum as close as possible to the first ligature. […] The supernatant was collected, volume measured and recorded, 2 drops of a phenolphthalein indicator (1% in 95% ethanol) were added and the solution was titrated with 0.02N NaOH (or with 0.04N NaOH when large volumes of stomach contents were encountered) to pH 8.4 (because of usual coloring of the stomach contents, phenolphthalein was only used to permit visual indication that the end point was near) and the amount of acid present was calculated. […]"}, "[5]": {"conditions": "total oral dose 25 mg./kg. of body weight, control score 3.2, scale 0 (normal stomach) to 4 (many ulcers, mainly large)"}}, "data": [{"smiles": "CCCCC[C@@H](O)/C=C/[C@H]1CCC(=O)[C@@H]1CCCCOCC(=O)OCC", "note": "(relative stereo) [Ethyl 3-oxa-9-oxo-15-epi-hydroxy-13-trans-prostenoate]", "values": [{"measurement": "minimal effective dose", "setting": "diastolic blood pressure", "result": 0.2, "unit": "mg/kg"}]}, {"smiles": "CCCCC[C@H](O)/C=C/[C@H]1CCC(=O)[C@@H]1CCCCCC(C)C(=O)O", "note": "(stereo partly drawn) [2-methyl-9-oxo-15-hydroxy-13-trans-prostenoic acid]", "values": [{"measurement": "minimal effective dose", "setting": "diastolic blood pressure", "result": 2, "unit": "mg/kg"}]}, {"smiles": "CCCCC[C@H](O)/C=C/[C@H]1CCC(=O)[C@@H]1CCCCOCC(=O)OCC", "note": "(relative stereo) [Ethyl 3-oxa-9-oxo-15-hydroxy-13-trans-prostenoate]", "values": [{"measurement": "minimal effective dose", "setting": "diastolic blood pressure", "result": 0.2, "unit": "mg/kg"}]}, {"smiles": "CCCCC[C@H](O)/C=C/[C@H]1CCC(=O)[C@@H]1CCCCOCC(=O)O", "note": "(relative stereo) [3-oxa-9-oxo-15-hydroxy-13-trans-prostenoic acid]", "values": [{"measurement": "minimal effective dose", "setting": "diastolic blood pressure", "result": "< 2", "unit": "mg/kg"}]}, {"smiles": "CCCCC[C@@H](O)/C=C/[C@H]1CCC(=O)[C@@H]1CCCCSCC(=O)O", "note": "(relative stereo) [9-oxo-3-thia-15-epi-hydroxy-13-trans-prostenoic acid]", "values": [{"measurement": "minimal effective dose", "setting": "diastolic blood pressure", "result": 2, "unit": "mg/kg"}, {"measurement": "Score, Treated", "setting": "[1]; [5]", "result": 2.3}]}, {"smiles": "CCCCCC(O)/C=C\\[C@H]1CCC(=O)[C@@H]1CCCCCCC(=O)O", "note": "(relative stereo) [9-oxo-15-hydroxy-13-cis-prostenoic acid, 15-hydroxy-9-oxo-13-cis-prostenoic acid]", "values": [{"measurement": "ED50", "setting": "[2]", "result": 0.000106, "unit": "mg/kg"}, {"measurement": "Score, Treated", "setting": "[1]; total oral dose 100 mg./kg. of body weight, control score 3.0, scale 0-4", "result": 1.3}]}, {"smiles": "CC/C=C\\CC(C)(O)/C=C/C1CCC(=O)C1C/C=C\\CCCC(=O)O", "note": "(stereo not drawn) [9-oxo-15-hydroxy-15-methyl-5-cis,13-trans,17-cis-prostatrienoic acid]", "values": [{"measurement": "Minimal effective hypotensive dose", "setting": "diastolic blood pressure", "result": "< 2 mg./kg. of body wt."}]}, {"smiles": "CCCCC[C@H](O)/C=C/[C@H]1CCCC(=O)[C@@H]1CCCCCCC(=O)O", "note": "(relative stereo) [9-oxo-10a-homo-15-hydroxy-13-trans-prostenoic acid]", "values": [{"measurement": "minimal effective dose", "setting": "diastolic blood pressure", "result": 2, "unit": "mg/kg"}]}, {"smiles": "CCCCC[C@H](O)/C=C/[C@H]1CCC(=O)[C@@H]1CCCCCC(C(=O)O)c1ccccc1", "note": "(stereo partly drawn) [2-phenyl-9-oxo-15-hydroxy-13-trans-prostenoic acid]", "values": [{"measurement": "minimal effective dose", "setting": "diastolic blood pressure", "result": 8, "unit": "mg/kg"}]}, {"smiles": "CC/C=C\\CC(O)/C=C/C1CCC(=O)C1C/C=C\\CCCC(=O)O", "note": "(stereo not drawn) [9-oxo-15-hydroxy-5-cis,13-trans,17-cis-prostatrienoic acid]", "values": [{"measurement": "Minimal effective hypotensive dose", "setting": "diastolic blood pressure", "result": "< 2 mg./kg. of body wt."}]}, {"smiles": "CCCCC[C@@H](O)/C=C/[C@H]1CCC(=O)[C@@H]1CCCCCC(C)C(=O)O", "note": "(stereo partly drawn) [2-methyl-9-oxo-15-epi-hydroxy-13-trans-prostenoic aid]", "values": [{"measurement": "minimal effective dose", "setting": "diastolic blood pressure", "result": 2, "unit": "mg/kg"}]}, {"smiles": "CCCCC(CC)C(O)/C=C/[C@H]1CCC(=O)[C@@H]1CCCCCCC(=O)O", "note": "(stereo partly drawn) [9-oxo-15-hydroxy-16-ethyl-13-trans-prostenoic acid]", "values": [{"measurement": "Score, Treated", "setting": "[1]; [5]", "result": 1.7}]}, {"smiles": "CCCCCC(O)/C=C/C1CCC(=O)C1(C)CCCCCCC(=O)O", "note": "(stereo not drawn) [9-oxo-8β-methyl-15-hydroxy-13-trans-prostenoic acid]", "values": [{"measurement": "Minimal effective hypotensive dose", "setting": "diastolic blood pressure", "result": "2 mg./kg. of body wt."}, {"measurement": "Score, Treated", "setting": "[1]; total oral dose 12.5 mg./kg. of body weight, control score 3.0, scale 0-4", "result": 2.0}]}, {"smiles": "CCCCC[C@H](O)/C=C/[C@H]1CCC(=O)[C@@H]1CCCCCC(CC)C(=O)O", "note": "(stereo partly drawn) [9-oxo-15-hydroxy-2-ethyl-13-trans-prostenoic acid]", "values": [{"measurement": "ED50", "setting": "[3]", "result": 0.000533, "unit": "mg/kg"}, {"measurement": "minimal effective dose", "setting": "diastolic blood pressure", "result": "< 2", "unit": "mg/kg"}, {"measurement": "ED50", "setting": "[2]", "result": 0.000329, "unit": "mg/kg"}, {"measurement": "Score, Treated", "setting": "[1]; total oral dose 50 mg./kg. of body weight, control score 3.0, scale 0-4", "result": 2.2}, {"measurement": "ED50", "setting": "[4]", "result": 0.000145, "unit": "mg/kg"}]}, {"smiles": "CCCC#CC(O)CC[C@H]1CCC(=O)[C@@H]1CCCCCCC(=O)O", "note": "(stereo partly shown) [9-oxo-15-hydroxy-16-prostynoic acid]", "values": [{"measurement": "ED50", "setting": "[3]", "result": 0.00032, "unit": "mg/kg"}]}, {"smiles": "CCCCC[C@H](O)/C=C/[C@H]1CCC(=O)[C@@H]1CCCCSCC(=O)O", "note": "(relative stereo) [9-oxo-3-thia-15-hydroxy-13-trans-prostenoic acid]", "values": [{"measurement": "minimal effective dose", "setting": "diastolic blood pressure", "result": 2, "unit": "mg/kg"}]}, {"smiles": "CCCCCC(O)/C=C/[C@H]1CCC(=O)[C@@H]1CCCCC(C)(C)CC(=O)O", "note": "(relative stereo) [9-oxo-15-hydroxy-3,3-dimethyl-13-trans-prostenoic acid]", "values": [{"measurement": "Percent Inhibition (gastric acid secretion)", "setting": "gastric acid secretion", "result": 51, "unit": "%"}]}, {"smiles": "CCCCC[C@@H](O)/C=C/[C@H]1CCCC(=O)[C@@H]1CCCCCCC(=O)O", "note": "(relative stereo) [9-oxo-10a-homo-15-epi-hydroxy-13-trans-prostenoic acid]", "values": [{"measurement": "minimal effective dose", "setting": "diastolic blood pressure", "result": 2, "unit": "mg/kg"}]}]}
